Measurements as given in article PMC9527238, “Glutamate and GABAA receptor crosstalk mediates homeostatic regulation of neuronal excitation in the mammalian brain” (Signal Transduction and Targeted Therapy, 2022).

Legend:
Format in all cases: cell-based
α1^E137G β2 γ2 GABAAR = biological target: T1, α1^E137G β2 γ2 GABAAR (Rattus norvegicus, UniProt P62813+P63138, E164G); experiment: Patch clamp, HEK293, mutant GABAAR; conditions: Glu 1 mM; GABA 1 µM; normalized to wild-type α1β2γ2
T1 construct: expressed in transfected cells; host or cells: HEK293
T1 sequence (P62813 28-455 E164G): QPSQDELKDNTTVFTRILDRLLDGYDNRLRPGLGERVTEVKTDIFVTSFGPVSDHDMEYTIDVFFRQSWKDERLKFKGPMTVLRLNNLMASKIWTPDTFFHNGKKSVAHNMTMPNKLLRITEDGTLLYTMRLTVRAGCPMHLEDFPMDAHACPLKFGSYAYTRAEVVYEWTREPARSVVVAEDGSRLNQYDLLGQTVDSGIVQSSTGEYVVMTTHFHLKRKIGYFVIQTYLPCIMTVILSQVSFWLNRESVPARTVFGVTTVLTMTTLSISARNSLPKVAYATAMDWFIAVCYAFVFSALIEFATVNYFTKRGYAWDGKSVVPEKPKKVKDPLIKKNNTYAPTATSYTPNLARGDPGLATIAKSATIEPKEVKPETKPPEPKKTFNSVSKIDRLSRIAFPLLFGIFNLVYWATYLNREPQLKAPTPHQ
T1 sequence (P63138 26-474): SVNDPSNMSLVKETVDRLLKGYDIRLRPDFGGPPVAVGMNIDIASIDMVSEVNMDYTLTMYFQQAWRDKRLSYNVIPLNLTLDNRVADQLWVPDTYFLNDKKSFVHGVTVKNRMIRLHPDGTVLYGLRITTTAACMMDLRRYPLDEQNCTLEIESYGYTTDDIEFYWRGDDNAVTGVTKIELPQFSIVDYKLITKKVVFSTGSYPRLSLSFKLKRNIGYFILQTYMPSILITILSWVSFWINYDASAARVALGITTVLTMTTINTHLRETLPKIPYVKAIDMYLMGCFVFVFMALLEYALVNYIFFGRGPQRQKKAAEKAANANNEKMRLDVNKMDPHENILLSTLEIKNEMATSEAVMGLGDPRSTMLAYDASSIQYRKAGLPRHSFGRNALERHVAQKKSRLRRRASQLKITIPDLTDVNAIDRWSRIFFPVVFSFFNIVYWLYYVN
T1 sequence (P18508 39-466 partner): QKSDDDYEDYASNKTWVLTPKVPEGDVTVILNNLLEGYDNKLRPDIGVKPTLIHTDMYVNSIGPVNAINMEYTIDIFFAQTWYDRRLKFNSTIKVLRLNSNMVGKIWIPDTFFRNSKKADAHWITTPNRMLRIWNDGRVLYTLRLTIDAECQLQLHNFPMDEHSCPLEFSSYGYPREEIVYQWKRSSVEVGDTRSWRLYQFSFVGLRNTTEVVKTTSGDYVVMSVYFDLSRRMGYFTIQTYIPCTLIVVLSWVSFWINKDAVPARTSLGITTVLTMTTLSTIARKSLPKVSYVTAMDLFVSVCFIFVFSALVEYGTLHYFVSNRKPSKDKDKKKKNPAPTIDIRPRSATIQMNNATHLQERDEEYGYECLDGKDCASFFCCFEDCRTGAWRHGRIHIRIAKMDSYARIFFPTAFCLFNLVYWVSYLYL
From the text: (§1) The subunits are color-coded individually. The boxed regions are further enlarged in the middle panels, highlighting the predicted glutamate binding pocket in the α+ and β− interface, just below the loop C. […] Relative potentiation was obtained by normalizing potentiation observed in the mutated receptor to that in the respective wild-type receptor.
(§2) To positively confirm one of these two putative binding sites involved in glutamate binding, we performed a systemic mutational analysis of critical amino acids around these two sites followed by electrophysiological characterizations of their impacts on glutamate potentiation in HEK293 cells expressing wild-type or mutated α1β2γ2 GABAARs (Table 1).
(§3) HEK293 cells were cultured in DMEM (Invitrogen) supplemented with 10% fetal bovine serum. Cells were grown to 40–60% confluence and transiently transfected using Lipofectamine 2000 (Invitrogen) with 1:0.5–1 plasmid/lipid ratio. Cells were transfected with a pBK-CMV expression vector containing a rat recombinant GABAAR α, β or γ subunits. Co-transections were done with a plasmid ratio of 1:1 αβ and 2:2:1 for αβγ subunit combinations, respectively. pcDNA3.1-GFP was also co-transfected along with GABAAR subunits as a transfected marker in order to facilitate the visualization of the transfected cells during electrophysiological experiments. Cells were re-plated on glass coverslips after 15–20 h transfection and were cultured for an additional 15–24 h before whole-cell patch-clamp recordings.
(§4) The site-directed mutagenesis of α, β or γ subunits were performed by using the QuikChange method (Stratagene). […] Wild-type or mutant subunits were transfected in HEK293 cells and subjected to electrophysiology examinations.
(§5) Whole-cell patch-clamp recordings were performed under voltage-clamp mode using an Axopatch 200B or 1D patch-clamp amplifier (Molecular Devices) on HEK293 cells and cultured neurons. Whole-cell currents were recorded at a holding potential of −60 mV, and signals were filtered at 2 kHz, digitized at 10 kHz (Digidata 1322 A). Recording pipettes (3–5 MΩ) were filled with the intracellular solution that contained (mM): CsCl 140, HEPES 10, Mg-ATP 4, QX-314 5, pH 7.20; osmolarity, 290–295 mOsm. BAPTA (10 mM) was added in the intracellular solution. The coverslips were continuously superfused with the extracellular solution containing (mM): NaCl 140, KCl 5.4, HEPES 10, MgCl2 1.0, CaCl2 1.3, glucose 20, pH 7.4; osmolarity, 305–315 mOsm. […] Dose–response curves were created by fitting data to Hill equation: I = Imax/[1 + (EC50/[A])^n], where I is the current, Imax is the maximum current, [A] is a given concentration of agonist, n is the Hill coefficient. […] All experiments were performed at room temperature.

α1^K104D β2 γ2 GABAAR = biological target: T2, α1^K104D β2 γ2 GABAAR (Rattus norvegicus, UniProt P62813+P63138, K131D); experiment: Patch clamp, HEK293, mutant GABAAR; conditions: Glu 1 mM; GABA 1 µM; normalized to wild-type α1β2γ2
T2 construct: expressed in transfected cells; host or cells: HEK293
T2 sequence (P62813 28-455 K131D): as the sequence (P62813 28-455 E164G) above, with K104D, G137E counted along it
T2 sequence (P63138 26-474): as the sequence (P63138 26-474) above
T2 sequence (P18508 39-466 partner): as the sequence (P18508 39-466 partner) above
From the text: as §1, §2, §3, §4, §5

α1^K155D β2 γ2 GABAAR = biological target: T3, α1^K155D β2 γ2 GABAAR (Rattus norvegicus, UniProt P62813+P63138, K182D); experiment: Patch clamp, HEK293, mutant GABAAR; conditions: Glu 1 mM; GABA 1 µM; normalized to wild-type α1β2γ2
T3 construct: expressed in transfected cells; host or cells: HEK293
T3 sequence (P62813 28-455 K182D): as the sequence (P62813 28-455 E164G) above, with G137E, K155D counted along it
T3 sequence (P63138 26-474): as the sequence (P63138 26-474) above
T3 sequence (P18508 39-466 partner): as the sequence (P18508 39-466 partner) above
From the text: as §1, §2, §3, §4, §5

α1 β2^E181G γ2 GABAAR = biological target: T4, α1 β2^E181G γ2 GABAAR (Rattus norvegicus, UniProt P62813+P63138, E206G); experiment: Patch clamp, HEK293, mutant GABAAR; conditions: normalized to wild-type α1β2γ2; for Relative potentiation: glutamate 100 μM co-applied with GABA 1 μM
T4 construct: expressed in transfected cells; host or cells: HEK293
T4 sequence (P62813 28-455): as the sequence (P62813 28-455 E164G) above, with G137E counted along it
T4 sequence (P63138 26-474 E206G): as the sequence (P63138 26-474) above, with E181G counted along it
T4 sequence (P18508 39-466 partner): as the sequence (P18508 39-466 partner) above
From the text: as §1, §2, §3, §4, §5

α1/β1/γ2 GABAAR = biological target: T5, α1/β1/γ2 GABAAR (Rattus norvegicus, UniProt P15431+P62813); experiment: Patch clamp, HEK293, β1-containing GABAAR; conditions: wild-type α1/β1/γ2
T5 construct: expressed in transfected cells; host or cells: HEK293
T5 sequence (P62813 28-455): as the sequence (P62813 28-455 E164G) above, with G137E counted along it
T5 sequence (P15431 26-474): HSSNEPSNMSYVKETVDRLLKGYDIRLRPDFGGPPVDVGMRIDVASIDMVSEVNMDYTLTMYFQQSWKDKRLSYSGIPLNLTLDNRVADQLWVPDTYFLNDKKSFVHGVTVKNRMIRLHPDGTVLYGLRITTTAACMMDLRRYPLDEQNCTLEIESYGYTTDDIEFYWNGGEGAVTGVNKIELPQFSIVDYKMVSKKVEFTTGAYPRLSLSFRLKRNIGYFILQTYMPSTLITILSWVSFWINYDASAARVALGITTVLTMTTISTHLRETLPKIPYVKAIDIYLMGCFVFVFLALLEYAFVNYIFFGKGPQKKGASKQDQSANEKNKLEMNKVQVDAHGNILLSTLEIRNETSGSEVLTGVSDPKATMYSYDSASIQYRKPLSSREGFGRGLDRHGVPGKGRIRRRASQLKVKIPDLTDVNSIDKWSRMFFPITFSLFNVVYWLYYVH
T5 sequence (P18508 39-466 partner): as the sequence (P18508 39-466 partner) above

α1^T206A β2 γ2 GABAAR = biological target: T6, α1^T206A β2 γ2 GABAAR (Rattus norvegicus, UniProt P62813+P63138, T233A); experiment: Patch clamp, HEK293, mutant GABAAR; conditions: glutamate 100 μM co-applied with GABA 1 μM; normalized to wild-type α1β2γ2
T6 construct: expressed in transfected cells; host or cells: HEK293
T6 sequence (P62813 28-455 T233A): as the sequence (P62813 28-455 E164G) above, with G137E, T206A counted along it
T6 sequence (P63138 26-474): as the sequence (P63138 26-474) above
T6 sequence (P18508 39-466 partner): as the sequence (P18508 39-466 partner) above
Procedure: as §2, §3, §4, §5

α1^Y159A β2 γ2 GABAAR = biological target: T7, α1^Y159A β2 γ2 GABAAR (Rattus norvegicus, UniProt P62813+P63138, Y186A); experiment: Patch clamp, HEK293, mutant GABAAR; conditions: glutamate 100 μM co-applied with GABA 1 μM; normalized to wild-type α1β2γ2
T7 construct: expressed in transfected cells; host or cells: HEK293
T7 sequence (P62813 28-455 Y186A): as the sequence (P62813 28-455 E164G) above, with G137E, Y159A counted along it
T7 sequence (P63138 26-474): as the sequence (P63138 26-474) above
T7 sequence (P18508 39-466 partner): as the sequence (P18508 39-466 partner) above
Procedure: as §2, §3, §4, §5

α1 β2^V177A γ2 GABAAR = biological target: T8, α1 β2^V177A γ2 GABAAR (Rattus norvegicus, UniProt P62813+P63138, V202A); experiment: Patch clamp, HEK293, mutant GABAAR; conditions: glutamate 100 μM co-applied with GABA 1 μM; normalized to wild-type α1β2γ2
T8 construct: expressed in transfected cells; host or cells: HEK293
T8 sequence (P62813 28-455): as the sequence (P62813 28-455 E164G) above, with G137E counted along it
T8 sequence (P63138 26-474 V202A): as the sequence (P63138 26-474) above, with V177A counted along it
T8 sequence (P18508 39-466 partner): as the sequence (P18508 39-466 partner) above
Procedure: as §2, §3, §4, §5

α1^E208A β2 γ2 GABAAR = biological target: T9, α1^E208A β2 γ2 GABAAR (Rattus norvegicus, UniProt P62813+P63138, E235A); experiment: Patch clamp, HEK293, mutant GABAAR; conditions: glutamate 100 μM co-applied with GABA 1 μM; normalized to wild-type α1β2γ2
T9 construct: expressed in transfected cells; host or cells: HEK293
T9 sequence (P62813 28-455 E235A): as the sequence (P62813 28-455 E164G) above, with G137E, E208A counted along it
T9 sequence (P63138 26-474): as the sequence (P63138 26-474) above
T9 sequence (P18508 39-466 partner): as the sequence (P18508 39-466 partner) above
Procedure: as §2, §3, §4, §5

α1 β2 ^I180A γ2 GABAAR = biological target: T10, α1 β2 ^I180A γ2 GABAAR (Rattus norvegicus, UniProt P62813+P63138, I205A); experiment: Patch clamp, HEK293, mutant GABAAR; conditions: glutamate 100 μM co-applied with GABA 1 μM; normalized to wild-type α1β2γ2
T10 construct: expressed in transfected cells; host or cells: HEK293
T10 sequence (P62813 28-455): as the sequence (P62813 28-455 E164G) above, with G137E counted along it
T10 sequence (P63138 26-474 I205A): as the sequence (P63138 26-474) above, with I180A counted along it
T10 sequence (P18508 39-466 partner): as the sequence (P18508 39-466 partner) above
Procedure: as §2, §3, §4, §5

α1^F99A β2 γ2 GABAAR = biological target: T11, α1^F99A β2 γ2 GABAAR (Rattus norvegicus, UniProt P62813+P63138, F126A); experiment: Patch clamp, HEK293, mutant GABAAR; conditions: glutamate 100 μM co-applied with GABA 1 μM; normalized to wild-type α1β2γ2
T11 construct: expressed in transfected cells; host or cells: HEK293
T11 sequence (P62813 28-455 F126A): as the sequence (P62813 28-455 E164G) above, with F99A, G137E counted along it
T11 sequence (P63138 26-474): as the sequence (P63138 26-474) above
T11 sequence (P18508 39-466 partner): as the sequence (P18508 39-466 partner) above
Procedure: as §2, §3, §4, §5

α1^S158A β2 γ2 GABAAR = biological target: T12, α1^S158A β2 γ2 GABAAR (Rattus norvegicus, UniProt P62813+P63138, S185A); experiment: Patch clamp, HEK293, mutant GABAAR; conditions: glutamate 100 μM co-applied with GABA 1 μM; normalized to wild-type α1β2γ2
T12 construct: expressed in transfected cells; host or cells: HEK293
T12 sequence (P62813 28-455 S185A): as the sequence (P62813 28-455 E164G) above, with G137E, S158A counted along it
T12 sequence (P63138 26-474): as the sequence (P63138 26-474) above
T12 sequence (P18508 39-466 partner): as the sequence (P18508 39-466 partner) above
Procedure: as §2, §3, §4, §5

α1^S205A β2 γ2 GABAAR = biological target: T13, α1^S205A β2 γ2 GABAAR (Rattus norvegicus, UniProt P62813+P63138, S232A); experiment: Patch clamp, HEK293, mutant GABAAR; conditions: glutamate 100 μM co-applied with GABA 1 μM; normalized to wild-type α1β2γ2
T13 construct: expressed in transfected cells; host or cells: HEK293
T13 sequence (P62813 28-455 S232A): as the sequence (P62813 28-455 E164G) above, with G137E, S205A counted along it
T13 sequence (P63138 26-474): as the sequence (P63138 26-474) above
T13 sequence (P18508 39-466 partner): as the sequence (P18508 39-466 partner) above
Procedure: as §2, §3, §4, §5

**Q.** N[C@@H](CCC(=O)O)C(=O)O [glutamate, Glutamate] was tested. Which “Relative potentiation, % of control” value (α1^E137G β2 γ2 GABAAR) did it give?
**A.** 26.9 ± 6.4%

**Q.** And the “Relative potentiation, % of control” value (α1^K104D β2 γ2 GABAAR)?
**A.** 18.6 ± 6.3%

**Q.** What about the “Relative potentiation, % of control” value (α1^K155D β2 γ2 GABAAR) of the same molecule?
**A.** 19.8 ± 11.7%

**Q.** And the “Relative potentiation, % of control” value (α1 β2^E181G γ2 GABAAR; Glu 1 mM, GABA 1 µM)?
**A.** 1.8 ± 9.6%

**Q.** And the Relative potentiation (α1 β2^E181G γ2 GABAAR)?
**A.** 1.6 ± 11.6%

**Q.** What about the Relative potentiation (α1 β2^E181G γ2 GABAAR; listed as Glu) of the same molecule?
**A.** 1.6 ± 11.6%

**Q.** What about the “potentiation of GABA-induced currents by glutamate” value (α1/β1/γ2 GABAAR) of the same molecule?
**A.** could also potentiate GABA-induced currents

**Q.** What about the Relative potentiation (α1^T206A β2 γ2 GABAAR) of the same molecule?
**A.** 129.3 ± 61.7%

**Q.** And the Relative potentiation (α1^Y159A β2 γ2 GABAAR)?
**A.** 90.8 ± 26.7%

**Q.** And the Relative potentiation (α1 β2^V177A γ2 GABAAR)?
**A.** 89.5 ± 28.3%

**Q.** What about the Relative potentiation (α1^E208A β2 γ2 GABAAR) of the same molecule?
**A.** 90.9 ± 28.7%

**Q.** What about the Relative potentiation (α1 β2 ^I180A γ2 GABAAR) of the same molecule?
**A.** 18.8 ± 12.9%

**Q.** What about the Relative potentiation (α1^F99A β2 γ2 GABAAR) of the same molecule?
**A.** 96.4 ± 23.0%

**Q.** And the Relative potentiation (α1^S158A β2 γ2 GABAAR)?
**A.** 106.9 ± 39.8%

**Q.** What about the Relative potentiation (α1^S205A β2 γ2 GABAAR) of the same molecule?
**A.** 113.1 ± 33.0%
